# Read-outs that look alike come from different tables or passages of the source.
# What was measured:
# [1] = no reference given; cited from earlier work
# [2] = assay type: in vitro ADME, human; details: for Qmax,24 h (maximal absorption: receptor fluid + epidermis + dermis after 24 h): percentage of the applied dose
# Salmonella typhimurium = details: cited from earlier work
# [3] = EFSA report; cited from earlier work
# [4] = vehicle 50% Glycerol, mean±RSD (%)
smiles,measurement,setting,value
"CC(=O)CO [acetol, 1-hydroxypropan-2-one]",log Pow,[1],−0.78
same,dose applied cumulatively found in the receptor chamber,"[2]; after 24 h, over the investigated vehicles",1.3–10.0%
same,Dm (diffusion coefficient),"[2]; vehicle 50% EtOH, mean±RSD (%)",1.49±41.8 10^−4 cm^2/h
same,Kp (permeability coefficient),"[2]; vehicle 50% EtOH, mean±RSD (%)",3.91±45.1 10^−3 cm/h
same,Lag time,"[2]; vehicle 50% EtOH, mean±RSD (%)",2.14 ± 51.8 h
same,"Qmax,24 h (maximal absorption: receptor fluid + epidermis + dermis after 24 h)","[2]; vehicle 50% EtOH, mean±RSD (%)",7.28±29.0%
same,Dm (diffusion coefficient),[2]; [4],0.73±22.4 10^−4 cm^2/h
same,Kp (permeability coefficient),[2]; [4],0.78±40.3 10^−3 cm/h
same,Lag time,[2]; [4],4.39 ± 28.7 h
same,"Qmax,24 h (maximal absorption: receptor fluid + epidermis + dermis after 24 h)",[2]; [4],1.75±39.0%
same,Dm (diffusion coefficient),"[2]; vehicle 50% PG, mean±RSD (%)",1.07±103.0 10^−4 cm^2/h
same,Kp (permeability coefficient),"[2]; vehicle 50% PG, mean±RSD (%)",1.30±79.0 10^−3 cm/h
same,Lag time,"[2]; vehicle 50% PG, mean±RSD (%)",5.65 ± 70.9 h
same,"Qmax,24 h (maximal absorption: receptor fluid + epidermis + dermis after 24 h)","[2]; vehicle 50% PG, mean±RSD (%)",2.94±76.0%
same,Jss (steady-state flux),"[2]; vehicle H2O (pure water), 5% acetol (m/V), 500 µL infinite dose, mean±RSD (%)",68.3±21.2 µg/cm^2/h
same,Dm (diffusion coefficient),"[2]; vehicle H2O, mean±RSD (%)",1.28±49.6 10^−4 cm^2/h
same,Kp (permeability coefficient),"[2]; vehicle H2O, mean±RSD (%)",1.30±21.2 10^−3 cm/h
same,Lag time,"[2]; vehicle H2O, mean±RSD (%)",2.95 ± 71.0 h
same,"Qmax,24 h (maximal absorption: receptor fluid + epidermis + dermis after 24 h)","[2]; vehicle H2O, mean±RSD (%)",3.37±11.7%
same,Kp (permeability coefficient),"[2]; vehicle PG (propylene glycol/water 50/50, V/V)",0.0013 cm/h
same,Kp (permeability coefficient),"[2]; vehicle glycerol (glycerol/water 50/50, V/V)",0.000778 cm/h
same,Kp (permeability coefficient),[2]; vehicle water,0.0013 cm/h
same,Ames tests (in-vitro mutagenic properties),Salmonella typhimurium,positive
same,genotoxic in-vivo,[3],not likely
